Results as given in patent US6344184B1, “Oral composition for inhibiting oral malodor” (priority 1999, dated 2002).
Like-named read-outs stand apart in the source and are kept apart here.

Test system: VSCs (hydrogen sulfide, methyl mercaptan) formed by bacteria in freshly collected human saliva
Experiment: In vitro VSC inhibition in incubated human saliva, gas chromatography of gas phase
Format: cell-based
Experimental: In vitro experiments were performed to test the VSC-inhibiting potential of different combinations of zinc acetate and cationic antibacterial agents.
To a 1 ml sample of freshly collected human saliva in a test tube was added 10 microliter of the solutions (mouthrinses) described below. The test tubes were closed with a stopper and incubated overnight at 37° C. A control tube which contained only saliva served as a control. It is well known that large amounts of VSCs are formed in a test tube during the latter conditions, the bacteria breaking down the salivary proteins and forming VSCs from cysteine and methionine. The VSCs in the gas phase above the incubated saliva, were measured by gas chromatography in a Shimadzu 14B instrument, and hydrogen sulfide, methyl mercaptan and di-methyl sulfide were used as standard.
The solutions to be tested were: 0.3% zinc acetate, 0.025% chlorhexidine, 0.025% cetylpyridinium chloride and 0.025% benzalkonium chlorides. Subsequently the zinc acetate was combined with each of the individual antibacterial agents. All the experiments described In this paragraph were performed on the same day under Identical conditions. The concentrations chosen were based on experience from pilot experiments with different concentrations of the zinc and antibacterial agents.
An examination was conducted to investigate whether the effect of the combinations of zinc acetate and the individual antibacterial agents represented a synergistic effect. This was performed according to the method of Behrenbaum (J.lnf. Dis. 137:122-130, 1978). The fractional inhibitory concentrations (the FIC index) was calculated based on the amounts (AUC) of hydrogen sulfide and methyl mercaptan formed under different conditions. […] The FIC index was calculated from the following formula: (A+B)/A+(A+B)/B, where A+B represents the combinations of zinc and antibacterial agent, whereas A and B alone represent the individual agents.
If the FIC Index is below 1 (<1) a synergistic effect is established. If the index is like 1 (=1) an additional effect between A and B is seen, whereas an index above 1 (>1) indicates an antagonistic effect.

[1] = 10 microliter solution added to 1 ml human saliva, incubated overnight at 37° C, low AUC = strong inhibitor, control >27 mill
[2] = 10 microliter solution added to 1 ml human saliva, incubated overnight at 37° C, low AUC = strong inhibitor, control >41 mill

Compound	Effect on HS and MM in saliva, in words	HS (hydrogen sulfide) AUC value (amount of VSC) [1]	MM (methyl mercaptan) AUC value (amount of VSC) [2]	HS (hydrogen sulfide) AUC value (amount of VSC)	MM (methyl mercaptan) AUC value (amount of VSC)	Effect on HS and MM in saliva, in words (incubated human saliva, versus control)
CC(=O)[O-].CC(=O)[O-].[Zn+2] [Zinc Ac. 0.3%, zinc acetate]	reduced the amount of HS much more than the amount of MM	150 000 AUC	4 mill	–	–	–
benzalkonium chloride [Benzalk 0.025%]	–	1.4 mill	1.7 mill	–	–	–
CCCCCCCCCCCCCCCC[n+]1ccccc1 [CPC 0.025%, cethylpyridinium chloride]	–	–	–	5.2 mill	6.89 mill	–
CC(=O)O.CC(=O)O.NC(=N\CCCCCC/N=C(N)/N=C(\N)Nc1ccc(Cl)cc1)/N=C(\N)Nc1ccc(Cl)cc1 [CHX 0.025%, chlorhexidine acetate]	–	443 000 AUC	355 000 AUC	–	–	clear effect on both HS and MM in the same order of magnitude as zinc acetate
